Results: the NIST ThermoML archive (doi:10.1016/j.jct.2015.04.005)
± gives the expanded uncertainty stated by the source.

Experiment: xn = mol fraction of the nth substance listed
Conditions: 102.24 kPa, Liquid; for speed of sound: Frequency=5 MHz, Single path-length method; for mass density: Vibrating tube method

Work on `CCC(=O)[O-].C[NH2+]CCO` [2-hydroxy-N-methylethanaminium propionate] + O yielded a speed of sound (298.15 K, x1 = 0.02) of 1628.3 ± 8.1 m/s, a speed of sound (298.15 K, x1 = 0.0501) of 1746.5 ± 8 m/s and a speed of sound (298.15 K, x1 = 0.1001) of 1820.9 ± 8 m/s. For the same compound, the speed of sound (298.15 K, x1 = 0.101) was 1818.1 ± 8 m/s, the speed of sound (298.15 K, x1 = 0.2006) was 1827.2 ± 8 m/s and the speed of sound (298.15 K, x1 = 0.301) was 1790.1 ± 8 m/s. It also gave a speed of sound (298.15 K, x1 = 0.3978) of 1757 ± 8 m/s, a speed of sound (298.15 K, x1 = 0.4976) of 1726.2 ± 8 m/s and a speed of sound (298.15 K, x1 = 0.5972) of 1721 ± 8 m/s. It also gave a speed of sound (298.15 K, x1 = 0.8006) of 1684.5 ± 8 m/s, a speed of sound (298.15 K, x1 = 1) of 1638.4 ± 8.1 m/s and a mass density (298.15 K, x1 = 0.02) of 1016.8 ± 1.7 kg/m3. For the same compound, the mass density (298.15 K, x1 = 0.0501) was 1039.1 ± 1.7 kg/m3, the mass density (298.15 K, x1 = 0.1001) was 1056.2 ± 1.7 kg/m3 and the mass density (298.15 K, x1 = 0.101) was 1055.8 ± 1.7 kg/m3. The mass density (298.15 K, x1 = 0.2006) was 1072.5 ± 1.7 kg/m3, the mass density (298.15 K, x1 = 0.301) was 1072.6 ± 1.7 kg/m3 and the mass density (298.15 K, x1 = 0.3978) was 1074 ± 1.7 kg/m3. For the same compound, the mass density (298.15 K, x1 = 0.4976) was 1072.3 ± 1.7 kg/m3, the mass density (298.15 K, x1 = 0.5972) was 1071.9 ± 1.7 kg/m3 and the mass density (298.15 K, x1 = 0.8006) was 1068.7 ± 1.7 kg/m3. The mass density (298.15 K, x1 = 1) was 1065.8 ± 1.7 kg/m3, the speed of sound (303.15 K, x1 = 0.02) was 1630.6 ± 8.1 m/s and the speed of sound (303.15 K, x1 = 0.0501) was 1741.6 ± 8 m/s. For the same compound, the speed of sound (303.15 K, x1 = 0.1001) was 1810.8 ± 8 m/s, the speed of sound (303.15 K, x1 = 0.101) was 1807 ± 8 m/s and the speed of sound (303.15 K, x1 = 0.2006) was 1812.4 ± 8 m/s. For the same compound, the speed of sound (303.15 K, x1 = 0.301) was 1775.9 ± 8 m/s, the speed of sound (303.15 K, x1 = 0.3978) was 1742.3 ± 8 m/s and the speed of sound (303.15 K, x1 = 0.4976) was 1711 ± 8 m/s. The speed of sound (303.15 K, x1 = 0.5972) was 1705.5 ± 8 m/s, the speed of sound (303.15 K, x1 = 0.8006) was 1668.3 ± 8 m/s and the speed of sound (303.15 K, x1 = 1) was 1624.6 ± 8.1 m/s. It also gave a mass density (303.15 K, x1 = 0.02) of 1013.4 ± 1.7 kg/m3, a mass density (303.15 K, x1 = 0.0501) of 1036.3 ± 1.7 kg/m3 and a mass density (303.15 K, x1 = 0.1001) of 1053.4 ± 1.7 kg/m3. For the same compound, the mass density (303.15 K, x1 = 0.101) was 1052.8 ± 1.7 kg/m3, the mass density (303.15 K, x1 = 0.2006) was 1069.5 ± 1.7 kg/m3 and the mass density (303.15 K, x1 = 0.301) was 1069.5 ± 1.7 kg/m3. The mass density (303.15 K, x1 = 0.3978) was 1070.9 ± 1.7 kg/m3, the mass density (303.15 K, x1 = 0.4976) was 1069.2 ± 1.7 kg/m3 and the mass density (303.15 K, x1 = 0.5972) was 1068.7 ± 1.7 kg/m3. It also gave a mass density (303.15 K, x1 = 0.8006) of 1065.4 ± 1.7 kg/m3, a mass density (303.15 K, x1 = 1) of 1062.6 ± 1.7 kg/m3 and a speed of sound (308.15 K, x1 = 0.02) of 1632.8 ± 8 m/s. For the same compound, the speed of sound (308.15 K, x1 = 0.0501) was 1736.7 ± 8 m/s, the speed of sound (308.15 K, x1 = 0.1001) was 1800.7 ± 8 m/s and the speed of sound (308.15 K, x1 = 0.101) was 1795.9 ± 8 m/s. For the same compound, the speed of sound (308.15 K, x1 = 0.2006) was 1797.6 ± 8 m/s, the speed of sound (308.15 K, x1 = 0.301) was 1761.6 ± 8 m/s and the speed of sound (308.15 K, x1 = 0.3978) was 1727.6 ± 8 m/s. It also gave a speed of sound (308.15 K, x1 = 0.4976) of 1695.7 ± 8 m/s, a speed of sound (308.15 K, x1 = 0.5972) of 1689.9 ± 8 m/s and a speed of sound (308.15 K, x1 = 0.8006) of 1652 ± 8 m/s. It also gave a speed of sound (308.15 K, x1 = 1) of 1607 ± 8.1 m/s, a mass density (308.15 K, x1 = 0.02) of 1010 ± 1.7 kg/m3 and a mass density (308.15 K, x1 = 0.0501) of 1033.5 ± 1.7 kg/m3. The mass density (308.15 K, x1 = 0.1001) was 1050.7 ± 1.7 kg/m3, the mass density (308.15 K, x1 = 0.101) was 1049.9 ± 1.7 kg/m3 and the mass density (308.15 K, x1 = 0.2006) was 1066.5 ± 1.7 kg/m3. The mass density (308.15 K, x1 = 0.301) was 1066.4 ± 1.7 kg/m3, the mass density (308.15 K, x1 = 0.3978) was 1067.9 ± 1.7 kg/m3 and the mass density (308.15 K, x1 = 0.4976) was 1066.1 ± 1.7 kg/m3. The mass density (308.15 K, x1 = 0.5972) was 1065.6 ± 1.7 kg/m3, the mass density (308.15 K, x1 = 0.8006) was 1062.2 ± 1.7 kg/m3 and the mass density (308.15 K, x1 = 1) was 1059.4 ± 1.7 kg/m3. For the same compound, the speed of sound (313.15 K, x1 = 0.02) was 1635.1 ± 8 m/s, the speed of sound (313.15 K, x1 = 0.0501) was 1731.8 ± 8 m/s and the speed of sound (313.15 K, x1 = 0.1001) was 1790.6 ± 8 m/s. The speed of sound (313.15 K, x1 = 0.101) was 1784.7 ± 8 m/s, the speed of sound (313.15 K, x1 = 0.2006) was 1782.8 ± 8 m/s and the speed of sound (313.15 K, x1 = 0.301) was 1747.4 ± 8 m/s. For the same compound, the speed of sound (313.15 K, x1 = 0.3978) was 1712.8 ± 8 m/s, the speed of sound (313.15 K, x1 = 0.4976) was 1680.5 ± 8 m/s and the speed of sound (313.15 K, x1 = 0.5972) was 1674.4 ± 8 m/s. For the same compound, the speed of sound (313.15 K, x1 = 0.8006) was 1635.7 ± 8 m/s, the speed of sound (313.15 K, x1 = 1) was 1588.5 ± 8.1 m/s and the mass density (313.15 K, x1 = 0.02) was 1006.6 ± 1.7 kg/m3. For the same compound, the mass density (313.15 K, x1 = 0.0501) was 1030.6 ± 1.7 kg/m3, the mass density (313.15 K, x1 = 0.1001) was 1047.9 ± 1.7 kg/m3 and the mass density (313.15 K, x1 = 0.101) was 1046.9 ± 1.7 kg/m3. The mass density (313.15 K, x1 = 0.2006) was 1063.5 ± 1.7 kg/m3, the mass density (313.15 K, x1 = 0.301) was 1063.3 ± 1.7 kg/m3 and the mass density (313.15 K, x1 = 0.3978) was 1064.8 ± 1.7 kg/m3. For the same compound, the mass density (313.15 K, x1 = 0.4976) was 1063 ± 1.7 kg/m3, the mass density (313.15 K, x1 = 0.5972) was 1062.5 ± 1.7 kg/m3 and the mass density (313.15 K, x1 = 0.8006) was 1059 ± 1.7 kg/m3. For the same compound, the mass density (313.15 K, x1 = 1) was 1056.2 ± 1.7 kg/m3.
